The record followed here is US5254533A, “Elfamycin” (Rhone-Poulenc Rorer S.A., priority 1990, dated 1993).

Experiment [1] is described as follows: Use as a growth factor in weaned piglets (Example 5). It counts as in vivo, weaned Large-White Belgian Landrace crossed piglets. The following applies: for Weight gain / Consumption / Intermediate Weight / Initial weight / Index of consumption: 40 ppm in feed; for Initial weight: start of period 14-28 days; for Index of consumption: consumption/weight gain ratio.

Experiment [2] can be described thus: Use as a growth factor in piglets (Example 6). The class given is in vivo, weaned Large-White Belgian Landrace crossed piglets. The following applies: 40 ppm in feed; for Final weight: control 24.7. The text has this: 130 weaned Large-White Belgian Landrace crossed piglets were used. The experiment began 2 weeks after weaning of the animals, i.e. at a mean age of 42 days.
The animals received the experimental feed ad libitum in the form of granules 2.5 mm in diameter.
The animals were weighed at the beginning, middle and end of the experiment. The consumptions were noted every week.
Tables 7, 8 and 9 respectively show the percentage composition and the characteristics of the diets, the percentage composition of the CMV and the percentage composition of the premixes.
The results are shown in Table 10 for the period 0-14 days, Table 11 for the period 14-28 days and Table 12 for the period 0-28 days.

Where [3] appears, read: Table 4, 0-14 days, control 15.3.
The mark [4] stands for this setting: Table 5, 14-28 days, control 23.1.
Setting [5] is: Table 6, 0-28 days, control 23.1.

With `CC[C@H]1OC(=O)C[C@@H](O)[C@H](C)[C@@H](O[C@@H]2O[C@H](C)[C@@H](O[C@H]3C[C@@](C)(O)[C@@H](O)[C@H](C)O3)[C@H](N(C)C)[C@H]2O)[C@@H](CC=O)C[C@@H](C)C(=O)/C=C/C(C)=C/[C@@H]1CO[C@@H]1O[C@H](C)[C@@H](O)[C@@H](OC)[C@H]1OC` [tylosin, reference compound], the Weight gain in experiment [1] (0-14 days, control 329) turned out to be 351 g/day; in experiment [1] (0-28 days, control 445) it was 470 g/day; in experiment [1] (14-28 days, control 560), 588 g/day. Besides, the Consumption in experiment [1] (0-14 days, control 614) turned out to be 619 g/day; in experiment [1] (0-28 days, control 822), 826 g/day; in experiment [1] (14-28 days, control 1031), 1033 g/day. For the same compound, the “Intermediate Weight” value in experiment [1] (setting [3]) turned out to be 15.6 kg; in experiment [1] (setting [4]) it was 23.8 kg; in experiment [1] (setting [5]), 23.8 kg. In addition, the Initial weight in experiment [1] (control 15.3) is given as 15.6 kg. In addition, the Index of consumption in experiment [1] (0-14 days, control 1.88) stood at 1.79; in experiment [1] (0-28 days, control 1.85), 1.76; in experiment [1] (14-28 days, control 1.86) it was 1.76.

On to “spiramycin embonate [reference compound]”, for which the Weight gain amounted to 393 g/day in experiment [1] (0-14 days, control 329); 518 g/day in experiment [1] (0-28 days, control 445); 647 g/day in experiment [1] (14-28 days, control 560); 423 g/day in experiment [2] (0-14 days, control 368); 532 g/day in experiment [2] (0-28 days, control 474); 640 g/day in experiment [2] (14-28 days, control 579). The Consumption worked out at 668 g/day in experiment [1] (0-14 days, control 614); 908 g/day in experiment [1] (0-28 days, control 822); 1147 g/day in experiment [1] (14-28 days, control 1031); 715 g/day in experiment [2] (0-14 days, control 645); 923 g/day in experiment [2] (0-28 days, control 852); 1130 g/day in experiment [2] (14-28 days, control 1059). Also, the figures for the “Intermediate Weight” value in experiment [1] (setting [3]), in experiment [1] (setting [4]) and in experiment [1] (setting [5]) were 16.3 kg, 25.4 kg and 25.4 kg, respectively. Moreover, in experiment [1] (control 15.3), the Initial weight came out at 16.3 kg. Moreover, the Index of consumption in experiment [1] (0-14 days, control 1.88) turned out to be 1.72; in experiment [1] (0-28 days, control 1.85), 1.75; in experiment [1] (14-28 days, control 1.86), 1.79; in experiment [2] (0-14 days, control 1.76), 1.70; in experiment [2] (0-28 days, control 1.80), 1.73; in experiment [2] (14-28 days, control 1.84) it was 1.77. The “effect on consumption (in words)” value in experiment [1] (first period 0-14 days) was “increase in consumption”; in experiment [1] (overall period 0-28 days), “significantly increased”. The “effect on growth (in words)” value was “significantly increased” in experiment [1] (overall period 0-28 days, relative to basic diet) and “significantly improved” in experiment [1] (second period 14-28 days). Besides, the Final weight in experiment [2] (Table 11, 14-28 days) is reported as 26.3 kg; in experiment [2] (Table 12, 0-28 days), 26.3 kg.
